Experimental data: PMC10924921, “Mi-2β promotes immune evasion in melanoma by activating EZH2 methylation” (Nature Communications, 2024)

How the values were obtained:
Assay in all cases: biochemical
Parameters in all cases: KINOMEscan active-site competition binding panel (468 kinase assays), per cent of control at 1000 nM
Settings in all cases: KINOMEscan per cent of control (binding competition); read-out: Percent Control
[1] = target: AAK1 (Homo sapiens, UniProt Q2M2I8)
Source text: (§1) Figure S7 / Percent Control

[2] = target: T1, ABL1-phosphorylated (Homo sapiens, UniProt P00519)
T1 construct: phosphorylated
Source text: as §1

[3] = target: T2, AMPK-alpha2 (Homo sapiens, UniProt P54646)
T2 construct: gene PRKAA2
Source text: as §1

[4] = target: T3, BIKE (Homo sapiens, UniProt Q9NSY1)
T3 construct: gene BMP2K
Source text: as §1

[5] = target: T4, CDC2L1 (Homo sapiens, UniProt P21127)
T4 construct: gene CDK11B
Source text: as §1

[6] = target: CSK (Homo sapiens, UniProt P41240)
Source text: as §1

[7] = target: EGFR(L747-E749del, A750P) (Homo sapiens, UniProt P00533, A750P/DEL747-749)
Source text: as §1

[8] = target: T5, ERK3 (Homo sapiens, UniProt Q16659)
T5 construct: gene MAPK6
Source text: as §1

[9] = target: T6, ERK8 (Homo sapiens, UniProt Q8TD08)
T6 construct: gene MAPK15
Source text: as §1

[10] = target: FLT3(ITD) (Homo sapiens, UniProt P36888, ITD)
Source text: as §1

[11] = target: FLT3(N841I) (Homo sapiens, UniProt P36888, N841I)
Source text: as §1

[12] = target: T7, JAK3(JH1domain-catalytic) (Homo sapiens, UniProt P52333)
T7 construct: JH1domain-catalytic
Source text: as §1

[13] = target: T8, JNK3 (Homo sapiens, UniProt P53779)
T8 construct: gene MAPK10
Source text: as §1

[14] = target: KIT(V559D,V654A) (Homo sapiens, UniProt P10721, V559D/V654A)
Source text: as §1

[15] = target: MAP4K3 (Homo sapiens, UniProt Q8IVH8)
Source text: as §1

[16] = target: T9, MLK1 (Homo sapiens, UniProt P80192)
T9 construct: gene MAP3K9
Source text: as §1

[17] = target: NEK1 (Homo sapiens, UniProt Q96PY6)
Source text: as §1

[18] = target: PAK2 (Homo sapiens, UniProt Q13177)
Source text: as §1

[19] = target: PKMYT1 (Homo sapiens, UniProt Q99640)
Source text: as §1

[20] = target: PKN2 (Homo sapiens, UniProt Q16513)
Source text: as §1

[21] = target: PRKD3 (Homo sapiens, UniProt O94806)
Source text: as §1

[22] = target: T10, SgK110 (Homo sapiens, UniProt P0C264)
T10 construct: gene SBK3
Source text: as §1

[23] = target: T11, TRKA (Homo sapiens, UniProt P04629)
T11 construct: gene NTRK1
Source text: as §1

[24] = target: TSSK1B (Homo sapiens, UniProt Q9BXA7)
Source text: as §1

T3 sequence (Q9NSY1 whole entry): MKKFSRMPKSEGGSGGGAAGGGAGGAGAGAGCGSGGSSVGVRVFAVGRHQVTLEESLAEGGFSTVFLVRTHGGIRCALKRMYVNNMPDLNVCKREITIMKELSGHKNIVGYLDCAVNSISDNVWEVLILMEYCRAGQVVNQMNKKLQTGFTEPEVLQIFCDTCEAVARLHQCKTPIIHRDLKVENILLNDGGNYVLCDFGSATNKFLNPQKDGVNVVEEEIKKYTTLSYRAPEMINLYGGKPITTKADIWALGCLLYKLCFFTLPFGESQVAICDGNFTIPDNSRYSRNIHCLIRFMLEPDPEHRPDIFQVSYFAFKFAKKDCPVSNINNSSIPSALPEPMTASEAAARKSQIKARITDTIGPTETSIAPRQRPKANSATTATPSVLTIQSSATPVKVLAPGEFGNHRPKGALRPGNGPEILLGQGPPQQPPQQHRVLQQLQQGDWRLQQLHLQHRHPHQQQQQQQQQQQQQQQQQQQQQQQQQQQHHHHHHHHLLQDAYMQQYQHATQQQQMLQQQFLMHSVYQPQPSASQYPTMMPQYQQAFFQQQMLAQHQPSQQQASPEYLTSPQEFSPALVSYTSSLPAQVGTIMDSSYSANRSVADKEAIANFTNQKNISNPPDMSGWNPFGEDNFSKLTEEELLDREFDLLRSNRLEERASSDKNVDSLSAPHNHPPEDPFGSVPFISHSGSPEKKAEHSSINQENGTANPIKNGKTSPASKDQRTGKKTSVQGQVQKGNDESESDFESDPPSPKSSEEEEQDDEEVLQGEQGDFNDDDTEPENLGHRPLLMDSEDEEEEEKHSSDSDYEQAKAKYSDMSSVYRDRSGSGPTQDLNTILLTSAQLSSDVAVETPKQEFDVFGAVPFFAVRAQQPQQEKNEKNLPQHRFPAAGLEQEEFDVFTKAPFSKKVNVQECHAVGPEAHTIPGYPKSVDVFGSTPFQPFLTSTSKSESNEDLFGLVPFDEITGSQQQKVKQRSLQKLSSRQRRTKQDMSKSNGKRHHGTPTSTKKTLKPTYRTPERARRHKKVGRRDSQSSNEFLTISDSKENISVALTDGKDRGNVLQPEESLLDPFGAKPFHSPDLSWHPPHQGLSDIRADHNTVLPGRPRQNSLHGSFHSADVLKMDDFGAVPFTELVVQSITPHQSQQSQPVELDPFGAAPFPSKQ
Sequence of CSK (P41240 whole entry): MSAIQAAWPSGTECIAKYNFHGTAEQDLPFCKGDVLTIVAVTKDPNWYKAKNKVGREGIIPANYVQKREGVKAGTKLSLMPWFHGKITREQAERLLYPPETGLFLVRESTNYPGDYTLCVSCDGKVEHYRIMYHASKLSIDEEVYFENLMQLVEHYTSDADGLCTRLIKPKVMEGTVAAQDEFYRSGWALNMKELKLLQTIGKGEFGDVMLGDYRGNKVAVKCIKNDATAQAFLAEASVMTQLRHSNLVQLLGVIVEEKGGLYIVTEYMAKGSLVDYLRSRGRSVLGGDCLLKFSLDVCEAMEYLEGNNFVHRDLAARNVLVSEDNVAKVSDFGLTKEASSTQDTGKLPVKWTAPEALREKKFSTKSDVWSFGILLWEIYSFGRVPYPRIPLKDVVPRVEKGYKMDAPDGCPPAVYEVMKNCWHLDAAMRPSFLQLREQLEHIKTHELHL
Sequence of KIT(V559D,V654A) (P10721 whole entry V559D/V654A): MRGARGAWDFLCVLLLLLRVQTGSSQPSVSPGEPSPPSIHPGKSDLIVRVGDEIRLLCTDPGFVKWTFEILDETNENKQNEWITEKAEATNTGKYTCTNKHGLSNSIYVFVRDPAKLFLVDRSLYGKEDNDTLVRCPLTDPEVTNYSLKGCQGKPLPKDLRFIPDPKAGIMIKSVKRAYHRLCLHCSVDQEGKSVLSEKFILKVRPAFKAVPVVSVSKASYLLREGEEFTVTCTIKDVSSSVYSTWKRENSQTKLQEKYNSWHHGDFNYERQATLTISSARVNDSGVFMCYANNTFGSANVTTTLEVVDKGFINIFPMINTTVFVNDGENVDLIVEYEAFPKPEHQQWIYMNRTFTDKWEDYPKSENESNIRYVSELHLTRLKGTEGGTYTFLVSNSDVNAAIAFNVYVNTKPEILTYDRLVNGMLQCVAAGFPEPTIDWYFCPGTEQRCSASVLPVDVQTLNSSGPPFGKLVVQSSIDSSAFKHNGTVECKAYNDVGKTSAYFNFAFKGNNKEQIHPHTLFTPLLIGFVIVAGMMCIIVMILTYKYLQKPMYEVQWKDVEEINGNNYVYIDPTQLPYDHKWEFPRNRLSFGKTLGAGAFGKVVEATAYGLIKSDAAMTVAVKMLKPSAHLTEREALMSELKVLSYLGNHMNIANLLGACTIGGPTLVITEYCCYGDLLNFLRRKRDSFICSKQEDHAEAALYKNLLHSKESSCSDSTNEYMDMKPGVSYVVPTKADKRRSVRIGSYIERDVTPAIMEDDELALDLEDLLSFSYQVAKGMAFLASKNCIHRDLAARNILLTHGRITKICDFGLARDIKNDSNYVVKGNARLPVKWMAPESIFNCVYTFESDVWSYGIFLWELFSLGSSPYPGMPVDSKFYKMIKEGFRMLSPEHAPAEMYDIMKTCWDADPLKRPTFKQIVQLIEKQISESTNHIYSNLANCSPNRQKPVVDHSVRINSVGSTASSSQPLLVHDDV
T4 sequence (P21127 whole entry): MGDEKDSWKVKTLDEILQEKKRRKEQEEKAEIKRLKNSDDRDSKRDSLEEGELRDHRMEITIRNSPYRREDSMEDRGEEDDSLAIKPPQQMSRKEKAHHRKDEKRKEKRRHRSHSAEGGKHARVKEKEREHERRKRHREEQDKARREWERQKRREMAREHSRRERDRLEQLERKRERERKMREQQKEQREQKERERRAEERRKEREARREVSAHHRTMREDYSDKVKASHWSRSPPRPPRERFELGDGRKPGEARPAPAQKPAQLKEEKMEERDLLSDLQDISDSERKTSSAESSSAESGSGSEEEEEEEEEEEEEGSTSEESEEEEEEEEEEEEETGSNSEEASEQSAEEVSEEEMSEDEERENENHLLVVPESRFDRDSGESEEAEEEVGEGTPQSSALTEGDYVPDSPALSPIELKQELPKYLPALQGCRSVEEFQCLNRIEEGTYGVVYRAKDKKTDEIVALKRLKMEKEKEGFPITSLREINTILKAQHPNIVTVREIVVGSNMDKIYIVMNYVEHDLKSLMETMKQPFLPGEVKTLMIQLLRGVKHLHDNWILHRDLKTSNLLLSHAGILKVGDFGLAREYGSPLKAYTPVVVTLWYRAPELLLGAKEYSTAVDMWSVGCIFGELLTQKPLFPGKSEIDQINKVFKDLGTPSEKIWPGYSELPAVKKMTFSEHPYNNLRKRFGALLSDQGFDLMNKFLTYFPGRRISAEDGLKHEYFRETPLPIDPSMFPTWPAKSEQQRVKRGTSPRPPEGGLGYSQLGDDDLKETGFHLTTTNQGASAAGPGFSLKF
Sequence of PKMYT1 (Q99640 whole entry): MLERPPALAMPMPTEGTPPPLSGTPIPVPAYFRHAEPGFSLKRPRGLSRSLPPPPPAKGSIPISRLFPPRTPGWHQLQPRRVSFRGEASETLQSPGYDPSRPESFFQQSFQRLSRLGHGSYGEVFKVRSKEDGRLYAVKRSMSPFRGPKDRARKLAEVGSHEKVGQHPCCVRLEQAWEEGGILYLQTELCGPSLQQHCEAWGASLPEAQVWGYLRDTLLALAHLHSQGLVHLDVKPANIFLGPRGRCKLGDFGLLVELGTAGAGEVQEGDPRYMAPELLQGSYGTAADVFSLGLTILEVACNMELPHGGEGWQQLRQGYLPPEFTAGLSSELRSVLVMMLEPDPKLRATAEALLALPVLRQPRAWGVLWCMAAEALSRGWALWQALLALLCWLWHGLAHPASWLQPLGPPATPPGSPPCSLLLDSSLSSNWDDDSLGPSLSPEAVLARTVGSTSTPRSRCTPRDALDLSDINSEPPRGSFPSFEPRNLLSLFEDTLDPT
T9 sequence (P80192 whole entry): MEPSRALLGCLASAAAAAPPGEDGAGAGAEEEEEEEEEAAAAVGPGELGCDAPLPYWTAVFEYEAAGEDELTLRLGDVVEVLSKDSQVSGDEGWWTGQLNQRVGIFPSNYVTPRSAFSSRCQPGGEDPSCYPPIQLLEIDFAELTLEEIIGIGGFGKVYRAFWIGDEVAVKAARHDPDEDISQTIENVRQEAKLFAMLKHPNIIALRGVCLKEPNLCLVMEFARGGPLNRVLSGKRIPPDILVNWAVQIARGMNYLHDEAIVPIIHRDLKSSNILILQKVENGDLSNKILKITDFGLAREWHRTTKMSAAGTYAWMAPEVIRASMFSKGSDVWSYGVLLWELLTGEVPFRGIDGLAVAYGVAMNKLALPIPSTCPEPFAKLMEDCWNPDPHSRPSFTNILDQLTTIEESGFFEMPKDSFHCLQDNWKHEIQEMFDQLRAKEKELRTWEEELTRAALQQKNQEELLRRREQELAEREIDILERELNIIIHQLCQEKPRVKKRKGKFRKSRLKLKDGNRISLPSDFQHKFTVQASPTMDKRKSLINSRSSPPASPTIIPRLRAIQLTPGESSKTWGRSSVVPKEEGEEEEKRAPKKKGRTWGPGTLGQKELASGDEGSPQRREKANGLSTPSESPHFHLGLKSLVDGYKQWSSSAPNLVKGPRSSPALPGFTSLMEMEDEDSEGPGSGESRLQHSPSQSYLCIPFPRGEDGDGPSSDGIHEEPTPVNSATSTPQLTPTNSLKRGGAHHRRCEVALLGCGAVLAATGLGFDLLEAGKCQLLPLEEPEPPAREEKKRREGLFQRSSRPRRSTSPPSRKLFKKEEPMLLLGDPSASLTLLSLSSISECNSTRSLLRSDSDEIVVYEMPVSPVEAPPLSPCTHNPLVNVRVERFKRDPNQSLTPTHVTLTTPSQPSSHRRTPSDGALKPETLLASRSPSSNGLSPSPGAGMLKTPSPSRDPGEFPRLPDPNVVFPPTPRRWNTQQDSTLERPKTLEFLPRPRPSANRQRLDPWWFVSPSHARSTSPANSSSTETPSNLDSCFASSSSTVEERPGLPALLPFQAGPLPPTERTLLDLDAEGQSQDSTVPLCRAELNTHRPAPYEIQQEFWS

For Cn1c(=O)[nH]c2ccc(-c3cccc(C(=O)NC4CCn5ccnc5C4)c3)cc21 (stereo not drawn) [Z36-MP5], the remaining binding at 1 µM [1] was 91%, the remaining binding at 1 µM [2] was 51% and the remaining binding at 1 µM [3] was 93%. It also gave a remaining binding at 1 µM [4] of 100%, a remaining binding at 1 µM [5] of 88% and a remaining binding at 1 µM [6] of 98%. For the same compound, the remaining binding at 1 µM [7] was 90%, the remaining binding at 1 µM [8] was 90% and the remaining binding at 1 µM [9] was 83%. The remaining binding at 1 µM [10] was 92%, the remaining binding at 1 µM [11] was 63% and the remaining binding at 1 µM [12] was 70%. It also gave a remaining binding at 1 µM [13] of 100%, a remaining binding at 1 µM [14] of 76% and a remaining binding at 1 µM [15] of 51%. It also gave a remaining binding at 1 µM [16] of 98%, a remaining binding at 1 µM [17] of 81% and a remaining binding at 1 µM [18] of 63%. It also gave a remaining binding at 1 µM [19] of 93%, a remaining binding at 1 µM [20] of 98% and a remaining binding at 1 µM [21] of 91%. The remaining binding at 1 µM [22] was 97%, the remaining binding at 1 µM [23] was 67% and the remaining binding at 1 µM [24] was 92%.
